Molecular target: T1, human recombinant mGluR5 (Homo sapiens, UniProt P41594)
T1 construct: expressed in transfected cells; hygromycin and geneticin selection, tetracycline-regulated
Experiment: Positive modulation of mGluR5, calcium based FLIPR assay in HEK 293 cell line
Conditions: EC50 of the modulation; HEK 293 cells expressing human recombinant mGluR5; glutamate at approximately 5% basal stimulation; peak height of Ca fluorescence signal
Experimental: The positive modulation of mGluR5 is measured in a HEK 293 cell line expressing human recombinant mGluR5 and is detected with calcium based FLIPR assay. The cells are cultured with DMEM supplemented with 10% FCS, 2 μg/mL tetracycline, 100 μg/mL hygromycin and 500 μg/mL gneticin. The cell culture media is exchanged for tetracycline-free cell culture media 3-7 days before the assay. One day before the assay the cell culture medium is exchanged to DMEM without glutamine and phenol red and supplemented with 10% FCS, 100 μg/mL hygromycin and 500 μg/mL geneticin. On the assay day, the medium of the subconfluent cultures is removed and the cells are detached by addition of 2.5 ml EDTA (0.02%) per 175 cm2 culture flask for 1 minute. The cells are resuspend in Ringer solution (140 mM NaCl, 5 mM KCl, 2.5 mM CaCl2, 1.5 mM MgCl2, 5 mM Glucose, 10 mM Hepes; adjusted to pH 7.4 with NaOH), pooled and Ringer solution added to adjust the volume to 50 mL. The cell suspension is centrifuged for 5 min at 1500 U/min (425 g). The supernatant is removed and the cells washed a second time with 50 ml fresh Ringer solution and centrifuged again as before. The supernatant is again removed and the pellet resuspended in Ringer solution to 1,000,000 cells/ml (1×10^6 cells/mL). The cells are plated onto BD BioCoat Poly-D-Lysine 384 well plates (20,000 cells/well; 20 μl/well). The lid covered plates are then incubated until use at 37° C./10% CO2. For dye loading, 20 μl of Calcium-4 assay kit solution (prepared according to the manufacturer's description in Ringer solution) are added to the cells and the plates are incubated for 80 min 37° C. and then 10 min at room temperature.
Controls, Compound Dilution and Assay Execution:
Each assay plate contained wells with “high” and “low” controls: • Low controls 1% DMSO/ringer solution+basal glutamate activation (defined as 100% CTL). • High controls 10 μM CDPPB+basal glutamate activation (defined as 200% CTL).
Test compounds are dissolved and diluted in DMSO to 100-fold the desired concentrations. In a second step, the compounds are diluted in Ringer solution such that the compounds are 4-fold more concentrated than the desired final assay concentration. The final DMSO concentration was 1%.
20 μl of each compound solution are then transferred to the assay plate and the Ca2+ kinetic is measured to determine any intrinsic compound activity. After 5 min incubation in the FLIPR device, the second stimulation with 20 μl of glutamate in Ringer solution (glutamate concentration adjusted to approximately 5% basal stimulation of the maximal possible glutamate effect) is added and the kinetic Ca2+ response of the wells was measured for the modulation effect.
The peak height of the Ca release related fluorescence signal (9-66) is used for the EC50.
The EC50 of the modulation is calculated over a nonlinear regression with GraphPad Prism (Table 1).

T1 sequence (P41594 21-1212): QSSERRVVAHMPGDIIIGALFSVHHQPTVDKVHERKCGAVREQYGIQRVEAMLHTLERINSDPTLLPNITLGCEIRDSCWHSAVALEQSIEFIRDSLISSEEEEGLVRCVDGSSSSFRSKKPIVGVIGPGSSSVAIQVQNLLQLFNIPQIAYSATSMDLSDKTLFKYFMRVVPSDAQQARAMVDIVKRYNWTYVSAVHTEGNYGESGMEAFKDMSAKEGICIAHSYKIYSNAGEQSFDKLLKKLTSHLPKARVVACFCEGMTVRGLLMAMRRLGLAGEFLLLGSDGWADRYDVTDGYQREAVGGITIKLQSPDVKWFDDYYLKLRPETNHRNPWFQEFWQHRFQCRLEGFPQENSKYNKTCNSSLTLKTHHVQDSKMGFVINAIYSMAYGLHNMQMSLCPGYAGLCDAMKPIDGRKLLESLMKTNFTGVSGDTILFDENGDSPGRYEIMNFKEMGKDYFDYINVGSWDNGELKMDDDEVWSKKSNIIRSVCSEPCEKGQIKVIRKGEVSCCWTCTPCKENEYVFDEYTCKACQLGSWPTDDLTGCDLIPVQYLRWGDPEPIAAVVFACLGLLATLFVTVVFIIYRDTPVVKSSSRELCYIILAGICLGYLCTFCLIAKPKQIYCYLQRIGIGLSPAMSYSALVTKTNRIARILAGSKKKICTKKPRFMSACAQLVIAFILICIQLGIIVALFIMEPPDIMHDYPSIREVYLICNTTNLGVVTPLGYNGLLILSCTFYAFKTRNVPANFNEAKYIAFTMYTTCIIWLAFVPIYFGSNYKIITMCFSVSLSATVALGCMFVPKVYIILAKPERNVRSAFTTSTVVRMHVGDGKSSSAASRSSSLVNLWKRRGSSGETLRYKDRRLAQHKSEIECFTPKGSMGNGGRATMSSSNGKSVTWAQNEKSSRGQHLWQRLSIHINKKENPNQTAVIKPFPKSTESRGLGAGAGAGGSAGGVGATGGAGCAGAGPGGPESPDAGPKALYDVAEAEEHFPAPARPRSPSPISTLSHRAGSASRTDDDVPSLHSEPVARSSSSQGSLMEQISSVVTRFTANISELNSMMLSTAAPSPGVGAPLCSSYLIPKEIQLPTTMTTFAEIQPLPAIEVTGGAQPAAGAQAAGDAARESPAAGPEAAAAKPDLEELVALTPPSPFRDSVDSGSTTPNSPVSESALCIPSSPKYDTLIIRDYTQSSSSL

Structure (SMILES)	EC50
Cc1nc2c(s1)CCN(C(=O)Cn1cc(-c3ccc(F)c(C)c3)nc1-c1ccccc1)CC2 [Example 7.01.01., 2-(4-(4-fluoro-3-methyl-phenyl)-2-phenyl-imidazol-1-yl)-1-(2-methyl-4,5,7,8-tetrahydro-thiazolo[4,5-d]azepin-6-yl)-ethanone]	90 nM
Cc1cc(-c2cn(CC(=O)N3CCc4nc(N)sc4CC3)c(-c3ccccc3)n2)ccc1F [Example 7.01.02.]	224 nM
Cc1nc2c(o1)CN(C(=O)Cn1cc(-c3ccc(F)c(C)c3)nc1-c1ccccc1)CC2 [Example 7.01.03.]	90 nM
Cc1nc2c(o1)CN(C(=O)Cn1cc(-c3ccc(F)c(C)c3)nc1C1CCCCC1)CC2 [Example 7.01.04.]	885 nM
Cc1cc(-c2cn(CC(=O)N3CCc4nc(N)sc4CC3)c(C3CCCCC3)n2)ccc1F [Example 7.01.05.]	623 nM
Cc1nc2c(s1)CCN(C(=O)Cn1cc(-c3ccc(F)c(C)c3)nc1C1CCCCC1)CC2 [Example 7.01.06.]	332 nM
Cc1nc2c(o1)CN(C(=O)Cn1cc(-c3ccc(F)cc3)nc1-c1ccccc1)CC2 [Example 7.01.07.]	939 nM
Nc1nc2c(s1)CCN(C(=O)Cn1cc(-c3ccc(F)cc3)nc1-c1ccccc1)CC2 [Example 7.01.08.]	738 nM
Cc1nc2c(s1)CCN(C(=O)Cn1cc(-c3ccc(F)cc3)nc1-c1ccccc1)CC2 [Example 7.01.09.]	259 nM
Cc1nc2c(s1)CCN(C(=O)Cn1cc(-c3ccc(F)c(C)c3)nc1C(C)C)CC2 [Example 7.01.10.]	854 nM
Cc1cc(-c2cn(CC(=O)N3CCc4nc(N)sc4CC3)c(-c3ccc(F)cc3)n2)ccc1F [Example 7.01.11.]	107 nM
Cc1nc2c(s1)CCN(C(=O)Cn1cc(-c3ccc(F)c(C)c3)nc1-c1ccc(F)cc1)CC2 [Example 7.01.12.]	78 nM
Cc1nc2c(o1)CN(C(=O)Cn1cc(-c3ccc(F)c(C)c3)nc1-c1ccc(F)cc1)CC2 [Example 7.01.13.]	40 nM
Cc1nc2c(s1)CN(C(=O)Cn1cc(-c3ccc(F)c(C)c3)nc1-c1ccc(F)cc1)C2 [Example 7.01.14.]	64 nM
Cc1nc2c(o1)CN(C(=O)Cn1cc(-c3ccc(F)cc3)nc1-c1ccc(F)cc1)CC2 [Example 7.01.15.]	297 nM
Cc1nc2c(s1)CN(C(=O)Cn1cc(-c3ccc(F)cc3)nc1-c1ccc(F)cc1)C2 [Example 7.01.16.]	633 nM

Further lines, results first:

EC50	Structure (SMILES)
96 nM	Cc1nc2c(s1)CCN(C(=O)Cn1cc(-c3ccc(F)cc3)nc1-c1ccc(F)cc1)CC2 [Example 7.01.17.]
448 nM	Nc1nc2c(s1)CCN(C(=O)Cn1cc(-c3ccc(F)cc3)nc1-c1ccc(F)cc1)CC2 [Example 7.01.18.]
574 nM	Cc1cccc(-c2cn(CC(=O)N3Cc4nc(C)sc4C3)c(-c3ccccc3)n2)c1 [Example 7.01.19.]
107 nM	Cc1cccc(-c2cn(CC(=O)N3CCc4nc(C)sc4CC3)c(-c3ccccc3)n2)c1 [Example 7.01.20.]
275 nM	Cc1cccc(-c2cn(CC(=O)N3CCc4nc(N)sc4CC3)c(-c3ccccc3)n2)c1 [Example 7.01.21.]
250 nM	Cc1cccc(-c2cn(CC(=O)N3CCc4nc(C)oc4C3)c(-c3ccccc3)n2)c1 [Example 7.01.22.]
431 nM	Cc1cc(-c2cn(CC(=O)N3CCN(c4cccc(C#N)c4)C(=O)C3)c(-c3ccc(F)cc3)n2)ccc1F [Example 7.01.23]
90 nM	COc1cccc(N2CCN(C(=O)Cn3cc(-c4ccc(F)c(C)c4)nc3-c3ccc(F)cc3)CC2=O)c1 [Example 7.01.24]
42 nM	Cc1cc(-c2cn(CC(=O)N3CCN(c4cc(F)ccn4)C(=O)C3)c(-c3ccc(F)cc3)n2)ccc1F [Example 7.01.25]
44 nM	Cc1cc(-c2cn(CC(=O)N3CCN(c4ccccn4)C(=O)C3)c(-c3ccc(F)cc3)n2)ccc1F [Example 7.01.26]
172 nM	Cc1cc(-c2cn(CC(=O)N3CCc4nc(N)sc4C3)c(-c3ccccc3)n2)ccc1F [Example 7.01.27]
769 nM	CC(=O)Nc1nc2c(s1)CCN(C(=O)Cn1cc(-c3ccc(F)c(C)c3)nc1-c1ccccc1)CC2 [Example 7.01.28]
162 nM	Cc1nc2c(o1)CCN(C(=O)Cn1cc(-c3ccc(F)c(C)c3)nc1-c1ccccc1)CC2 [Example 7.01.29]
150 nM	Cc1cc(-c2cn(CC(=O)N3CCc4ncsc4CC3)c(-c3ccccc3)n2)ccc1F [Example 7.01.30]
108 nM	Cc1nc2c(s1)CN(C(=O)Cn1cc(-c3ccc(F)c(C)c3)nc1-c1ccccc1)CC2 [Example 7.01.31]
61 nM	Cc1nc2c(o1)CCN(C(=O)Cn1cc(-c3ccc(F)c(C)c3)nc1-c1ccccc1)C2 [Example 7.01.32]
127 nM	Cc1nc2c(o1)CN(C(=O)Cn1cc(-c3ccc(F)c(C)c3)nc1-c1ccccc1)C2 [Example 7.01.33]
101 nM	Cc1nc2c(o1)CN(C(=O)Cn1cc(-c3ccc(F)c(C)c3)nc1-c1ccc(F)cc1)C2 [Example 7.01.34]
